Details: Capillary rise

COCOC [dimethoxymethane]
Details	surface tension liquid-gas [mN/m]
238.07 K	28.12
243.12 K	27.42
248.13 K	26.76
253.12 K	26.21
258.12 K	25.63
263.08 K	24.83
268.09 K	24.23
273.09 K	23.63
278.08 K	23.11
283.07 K	22.39
288.08 K	21.75
293.05 K	21.02
298.04 K	20.36
303.16 K	19.7
308.15 K	18.99
313.16 K	18.4
318.16 K	17.67
323.15 K	17.16
328.13 K	16.56
333.16 K	15.88
338.16 K	15.32
343.15 K	14.65
348.14 K	14.02
353.15 K	13.34
358.15 K	12.83
363.15 K	12.27
368.15 K	11.58
373.15 K	11.01
378.15 K	10.36
383.13 K	9.778
388.14 K	9.175

COC(C)(C)C [2-methoxy-2-methylpropane]
Details	surface tension liquid-gas [mN/m]
243.08 K	24.08
248.01 K	23.43
253.11 K	22.84
258.13 K	22.32
263.1 K	21.65
268.13 K	20.97
273.16 K	20.52
278.11 K	19.99
283.12 K	19.35
288.13 K	18.96
293.07 K	18.53
298.08 K	17.75
303.11 K	17.23
308.15 K	16.71
313.16 K	16.25
318.11 K	15.61
323.16 K	15.09
328.14 K	14.52
333.15 K	14.02
338.16 K	13.56
343.13 K	13.06
348.13 K	12.5
353.13 K	11.94
358.15 K	11.55
363.13 K	10.92
368.13 K	10.53
373.12 K	9.946
378.12 K	9.534
383.12 K	8.956
388.14 K	8.518
393.13 K	8.006
